The subject of data set [1] is normal human dermal fibroblasts (NHDFs). Nature of the data set: Cytotoxicity assay (MTS), cell proliferation and viability. Type of data set: cell-based. The following applies: 24 hours of exposure, 0.1 to 1 μg/mL, vs control and DMSO vehicle control. Here is the method:
(§1) Human umbilical vein endothelial cells (HUVECs), adult normal human epidermal keratinocytes (NHEKs), normal human dermal fibroblasts (NHDFs) and related media for cell culture including endothelial basal and growth medium-2 (EBM-2, EGM-2), keratinocyte basal and growth medium-2 (KBM-2, KGM™-2), fibroblast basal and growth medium (FBM, FGM™) were purchased from Lonza. Cells were incubated at 37° C. and 5% CO2 throughout the experiments. Phosphate-Buffered Saline (PBS), [3-(4,5-dimethylthiazol-2-yl)-5-(3-carboxymethoxyphenyl)-2-(4-sulfophenyl)-2H-tetrazolium (MTS) (Promega) colorimetric assay and growth factor reduced matrigel BD (Corning) were from Sigma-Aldrich. Culture-Insert 2 Well 24 IbiTreat was used for the scratch assay.
(§2) In order to determine cell viability, HUVECs, NHDFs, NHEKs were cultured in their respective growth media to reach 80% confluency. Cells were seeded at the density of 3×10^3 cell per 96 well plate in a total volume of 100 μl in each well. After seeding, the cells were incubated for 24 hours at 37° C. and 5% CO2 to allow for cell attachment. Media was changed and replaced with media supplemented with the desired concentration of the compound of interest (0.1, 0.5, 1 and 10 μg/mL), being first dissolved at 10,000 μg/mL in DMSO and subsequently diluted in culture media. The vehicle control was culture medium supplemented with DMSO 0.1% (Macron Fine Chemicals), representing the highest final concentration of DMSO used to dissolve the natural compound. Following 24 hours of incubation, […] and incubated for 2 hours. Colored formazan absorbance which was produced by bio-reduction of MTS tetrazolium compound in live cells was read at 490 nm using a Spectramax 190 spectrophotometer and cell proliferation was assessed. A standard calibration curve at different concentration of cells was prepared to correlate cell number to absorbance.

Data set [2] concerns normal human epidermal keratinocytes (NHEKs). The description is as above. Type of data set: cell-based. The following applies: 24 hours of exposure, 0.1 to 1 μg/mL, vs control and DMSO vehicle control. As for the experimental part:
as §1, §2

Data set [3] concerns human umbilical vein endothelial cells (HUVECs). The description is as above. Type of data set: cell-based. The note with it: 24 hours of exposure, 0.1 to 1 μg/mL, vs control and DMSO vehicle control. As for the experimental part:
as §1, §2

The subject of another data set is NHEKs. Description: In vitro scratch assay (cell migration, wound closure). Type of data set: cell-based, human. As for the experimental part: as §1
Cell migration of NHEKs was assessed through making a cell-free gap with a Culture-insert 2 well 24, consisting of two wells that were separated by a wall. A total of 70 μl of cell suspension comprising of 35×10^3 cell was applied in each well. Cells were given 24 hours to attach and reach confluency. Culture inserts were then removed, and cell debris was washed with PBS. The samples were supplemented with different concentration of the compound of interest in growth media and incubated at 37° C. and 5% CO2 for 20 hours. Images were taken every 4 hours using a phase contrast Nikon Eclipse Ti-E inverted microscope. Quantification of percent wound healing was performed by measuring the gap distance using the following formula:
[formula] in which Wn is the width of gap after every 4 hours and W0 is the initial width zero right after forming a scratch. Capillary Tube Formation

The test system of the next data set is HUVECs. Description: Capillary tube formation on matrigel. Type of data set: cell-based, human. The following applies: 1 μg/mL, 8 hours. As for the experimental part: as §1
Matrigel was kept in a −20° C. freezer and thawed on ice overnight in a 4° C. refrigerator. A total of 50 μl of thawed matrigel was added to each well of pre-chilled 96-well plate and then incubated for 30 min at 37° C. to form a gel. Next, 100 μl of a HUVEC cell suspension (passage 2-6) in conditioned media (20000 cell/well), including the compound of this invention, was added to gel and incubated at 37° C. for 8 hours. The number of junctions in tubes was examined using a phase contrast inverted microscope (Invitrogen EVOS FL Auto Cell Imaging) and compared to the conditions with no compound (negative control) and VEGF growth factor (positive control).

`C=CC1(C)CC2=CCC3C(C)(C)CCC(O)C3(C)C2CC1O` (stereo not shown) [compound of FIG. 1]: the “cell toxicity (MTS)” value in data set [1], in data set [2] and in data set [3] was “no cell toxicity” each time. For the same compound, the “migration during exposure time” value with NHEKs (1 μg/mL, compared with untreated cells and 0.1 μg/mL) was “higheast migration”. Also, the “percentage of wound closure relative to non-treated control groups” value with NHEKs (1 μg/mL, four hours post-treatment) is on record as roughly 10 fold. Moreover, the “wound closure of NHEKs” value in the data set with NHEKs (0.1 and 1 μg/mL, monitored for 20 hours, vs untreated control) is on record as “significantly enhance the wound closure”. Also, in the data set with HUVECs, the “tube formation, more than the control (untreated cell)” value amounted to 60%.

Source of the values: patent US11357739B2, “Pimarane diterpenoids for use in wound healing and angiogenesis” (UNIVERSITY OF SOUTH CAROLINA, priority 2017, dated 2022).
